Measurements from patent US7488759B2, “Malic acid addition salts of terbinafine” (Novartis AG, priority 2001, dated 2009).
Counter-ions that a name gives are not always drawn. Like-named read-outs stand apart in the source and are kept apart here. Each block holds one compound with its values, some of them ahead of it.

Experiments:
[1] = pharmacokinetic study in Beagle dogs, oral capsules; assay type: in vivo; settings: 7 Beagle dogs, oral capsule 62.5 mg base equivalent
Procedure: This appears i.a. from a pharmacokinetic study in animals involving 7 Beagle dogs weighing about 10 kg, aged about 5 years, upon oral administration of capsules prepared by mixing active terbinafine salt substance [hydrochloride or L-(−)-hydrogen malate; 62.5 mg base equivalent per capsule] with lactose in a ratio of 1:1 w/w and filling into appropriate hard gelatine capsules (particle size distribution similar for both salts).

[2] = solubility in water and organic solvents; assay type: physicochemical; settings: for solubility: 25 °C
Excerpt: They thus form crystals more readily than the hydrochloride or the free base. […] Polymorphs have different dissolution rates, milling behaviour and stability, e.g. in galenical forms where the pharmaceutically active compound is in solid form, such as tablets or suspensions, and they influence bioavailability. The surprising presence of polymorphism is therefore advantageous in terms of improved processability, such as with polymorph particularly stable thermodynamically, in formulations with compound in solid form, e.g. tablets or suspensions, or with polymorph having a particularly high dissolution rate or solubility, in formulations with dissolved compound, e.g. nail lacquers. The compounds of the invention are therefore better processable for e.g. large scale tablet formulation; they also have favourable penetration/permeation properties and can thus readily be formulated into topical forms, such as nail lacquers. […] Further, they are non-hygroscopic, thus providing stable formulations while minimizing the risk of intrinsic chemical breakdown.

CYP2D6 = CYP2D6 (Homo sapiens, UniProt P10635); settings: cited from earlier work
[3] = in vitro nail penetration/permeation assay (modified Franz cell); assay type: in vitro ADME, human; settings: 72 hours, 1% solution
Procedure: Human cadaveric toe nails are used in a Franz cell (FIG. 1) modified to accept cadaveric human toenails by having a pair of flexible rings made of a silicone elastomer (PDMS) having good sealant properties to adequately mount hard nails, using liquid scintillation counting (LSC) (picogram limit of detection) to measure the increase in radioactivity in the acceptor compartment. Each measurement is effected in triplicate. 90 randomly selected nails are exposed for 72 hours to a solution of 100 μl of ^14C-labelled terbinafine hydrochloride or terbinafine L-(−)-hydrogen malate (form A) solution [25 μBq/ml; 1% active product; 5% 1,2-propylene glycol; 2% Cetomacrogol-1000® (polyoxyethylene-glycol-1000-monoacetylether); 25% ethanol 94%; 67% distilled water] (w/w). Each area of the nail exposed to the formulation has a 9 mm diameter (about 64 mm^2). Exposure is effected under occlusive (chamber closed to air) and non-occlusive (chamber open to air) conditions.
The radiolabelled product is detectable in the buffer-filled receptor chamber from about 8 hours of incubation. Its concentration in the receptor chamber as measured by LSC increases with incubation time and concentration of applied formulation. A total of 24 penetration chambers are used in parallel. Each formulation is measured in triplicate.

[4] = parameters: AUC increase factor in steady state vs single dose: unit not given beside the values; settings: cited from earlier work
[5] = Beagle, dog, plasma, po, 62.5 mg
[6] = ethanol, organic solvent or mixture, read-out: solubility in ethanol
[7] = human subjects, single 250 mg terbinafine dose
[8] = steady state after several days dosing

CYP2D6, sequence (P10635 whole entry): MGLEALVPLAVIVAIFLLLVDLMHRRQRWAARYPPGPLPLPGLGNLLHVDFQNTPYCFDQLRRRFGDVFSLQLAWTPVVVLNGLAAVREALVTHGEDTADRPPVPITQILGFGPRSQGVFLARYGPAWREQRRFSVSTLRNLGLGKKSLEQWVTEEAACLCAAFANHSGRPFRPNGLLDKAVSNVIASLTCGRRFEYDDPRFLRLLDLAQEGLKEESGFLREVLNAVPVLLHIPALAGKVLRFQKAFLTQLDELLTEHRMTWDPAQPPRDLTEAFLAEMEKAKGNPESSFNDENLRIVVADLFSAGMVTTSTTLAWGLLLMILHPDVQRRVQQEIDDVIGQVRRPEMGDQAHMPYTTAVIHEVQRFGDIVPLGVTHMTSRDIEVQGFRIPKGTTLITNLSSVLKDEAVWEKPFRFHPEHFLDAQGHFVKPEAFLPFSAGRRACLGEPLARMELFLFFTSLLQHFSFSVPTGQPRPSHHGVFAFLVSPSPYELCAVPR

coefficient of variation (CV) of AUC, inter-animal variability [1]: 30%
AUC [1, 5]: 392 ng·h/mL
Cmax [1, 5]: 134 ng/mL
solubility in ethyl acetate ([2]; 25°): > 30 mg/mL
solubility in water ([2]; 25°): 12 to 15 mg/mL
SMILES: CN(C/C=C/C#CC(C)(C)C)Cc1cccc2ccccc12 [L-(−)-hydrogen malate, terbinafine L-(−)-hydrogen malate]

SMILES: CN(C/C=C/C#CC(C)(C)C)Cc1cccc2ccccc12 [Terbinafine, (E)-N-methyl-6,6-dimethyl-N-(1-naphthylmethyl)hept-2-en-4-inyl-1-amine]
inhibition of CYP2D6 (CYP2D6): potent inhibitor

solubility in water ([2]; 25°): 15 mg/mL
SMILES: CN(C/C=C/C#CC(C)(C)C)Cc1cccc2ccccc12 [Example 2, Terbinafine L-(−)-hydrogen malate (polymorph form B)]

amount recovered in receptor chamber (permeation) ([3]; non-occlusive conditions): ~41 ng
amount recovered in receptor chamber (permeation) ([3]; occlusive conditions): about 63 ng
solubility in ethyl acetate ([2]; 25°): > 30 mg/mL
solubility in water ([2]; 25°): ~12 mg/mL
solubility in ethanol ([2]; 25°, listed as Example 3): > 50 mg/mL
solubility ([2]; aqueous with cosolvent or surfactant or cyclodextrin, solubility, read-out: solubility in ethane/water 2:8 v/v): > 30 mg/mL
solubility [2, 6]: > 30 mg/mL
SMILES: CN(C/C=C/C#CC(C)(C)C)Cc1cccc2ccccc12 [Example 1, Terbinafine L-(−)-hydrogen malate (polymorph form A)]

solubility [2, 6]: > 50 mg/mL
solubility ([2]; ethyl acetate, organic solvent or mixture, read-out: solubility in ethyl acetate): ~17 mg/mL
solubility ([2]; water, water, read-out: solubility in water): ~7 mg/mL
SMILES: CN(C/C=C/C#CC(C)(C)C)Cc1cccc2ccccc12 (racemic) [Example 5, Terbinafine DL-(±)-hydrogen malate]

coefficient of variation (CV) of AUC, inter-animal variability ([1]; hydrochloride): 39%
mean AUC ([1]; hydrochloride): 348 ng·h/mL
mean Cmax ([1]; hydrochloride): 146 ng/mL
SMILES: CN(C/C=C/C#CC(C)(C)C)Cc1cccc2ccccc12 [terbinafine hydrochloride]
increase in AUC with a fat-rich meal ([4]; administered with a fat-rich meal): 42%
Peak drug plasma concentration (Cmax) [4, 7]: about 1.3 μg/ml
area under the curve over 24 hours (AUC) [4, 7]: about 4.76 μg·hour/ml
effective half-life ([4]; human, in vivo): about 36 hours
reduction of clearance ([4]; patients with renal impairment (creatinine clearance ≤50 ml/min) or hepatic cirrhosis): approximately 50%
AUC increase factor in steady state vs single dose [4, 8]: 2.5
Cmax higher in steady state vs single dose [4, 8]: 25%

solubility in water ([2]; 25°): ~7 mg/mL
SMILES: CN(C/C=C/C#CC(C)(C)C)Cc1cccc2ccccc12 [Example 4, Terbinafine D-(+)-hydrogen malate]
